{"source": "patent US20150216823A1", "about": "“COMPOSITIONS FOR THE TREATMENT OF MIGRAINE HEADACHES AND METHODS THEREOF” (priority 2012, published 2015)", "key": {"[1]": {"assay": "Capsaicin solubilization experiments with varying Tween 80, visual assessment", "assay_type": "physicochemical", "settings": "capsaicin at 0.05-0.055% concentration", "from_the_text": "Therefore, it was decided to evaluate the use of the concentrated capsaicin (a white powder) as a replacement for the oily oleoresin capsicum extract. However, as capsaicin powder is hydrophobic it was necessary to determine what quantity of surfactant was necessary to maintain the capsaicin in solution. A study was therefore conducted to determine the required concentration of a chosen surfactant (Tween 80) to achieve and maintain complete dissolution of the capsaicin (assuming a capsaicin concentration of 0.054% w/v). In other words, the level of surfactant required for dissolving the capsaicin in an aqueous vehicle was determined as described below.\nA series of experiments were undertaken to prepare various samples with the addition of a set quantity of capsaicin powder (equivalent to 0.05% in solution) and varying concentrations of Tween 80.\nSample 1: 1% Tween 80 was prepared according to the following protocol: […]; Tween 80; […]; and 10 mL stock solution. The sample was sonicated for 2 minutes and then visually assessed. […]\nSample 2: 0.5% Tween 80 was prepared according to the following protocol: […] Tween 80; 0.011 g capsaicin; and 10 mL stock solution. The sample was sonicated for 2 minutes and then visually assessed. […]\nAll samples were left overnight and visually assessed again on the following day. […]"}, "[2]": {"settings": "cited from earlier work"}}, "note": "Read-outs that look alike come from different tables or passages of the source."}
{"compound": "COc1cc(CNC(=O)CCCC/C=C/C(C)C)ccc1O", "note": "[capsaicin]", "values": [{"measurement": "required concentration of Tween 80 in the stock solution to achieve complete dissolution of capsaicin", "setting": "[1]", "value": 0.5, "unit": "% w/v"}]}
{"compound": "CCC(=O)O[C@]1(C(=O)SCF)[C@H](C)C[C@H]2[C@@H]3C[C@H](F)C4=CC(=O)C=C[C@]4(C)[C@@]3(F)[C@@H](O)C[C@@]21C", "note": "[fluticasone propionate]", "values": [{"measurement": "bio-availability of the nasal spray formulation relative to the nasal drop formulation", "setting": "[2]; intranasal administration", "value": "about eight times higher"}]}
{"compound": "NC(=O)CC[C@@H]1NC(=O)[C@H](Cc2ccccc2)NC(=O)[C@H](Cc2ccc(O)cc2)NC(=O)CCSSC[C@@H](C(=O)N2CCC[C@H]2C(=O)N[C@H](CCCN=C(N)N)C(=O)NCC(N)=O)NC(=O)[C@H](CC(N)=O)NC1=O", "note": "[desmopressin]", "values": [{"measurement": "bio-availability of the nasal spray formulation relative to the nasal drop formulation", "setting": "[2]; in vivo", "value": "two to three times higher"}]}
